What was measured:
[1] = system: MV-4-11; assay: Apoptosis by Annexin V/PI double staining, flow cytometry; assay type: cell-based, human; conditions: 6-hour treatment, DMSO control 6.4 ± 0.1%
Procedure: Figure 5 Apoptotic activity of GFH009 in human malignancy cell lines. Four cell lines, MV-4-11 (A), HL-60 (B), U937 (C), and NCI-H929 (D) were treated with different concentrations of GFH009 or enitociclib for 6 hours and harvested for cell apoptosis analysis using Annexin V/PI double staining. Data are presented as mean (SD) from multiple independent experiments. ^* P < 0.05, ^*** P < 0.001, ^**** P < 0.0001, one-way ANOVA with Dunnett’s test analysis compared to DMSO control group.
Initiation of apoptosis by GFH009 was assayed in multiple human cell lines, including MV-4-11, HL-60, U937, and NCI-H929. Cells were incubated at 37°C and 5% CO2 for 6 hours at final concentrations of 1 μM, 0.3 μM, 0.1 μM, 0.03 μM, and 0.01 μM for both GFH009 and Enitociclib. After drug treatment, cells were collected, and apoptosis determined using Annexin V-FITC and propidium iodide (PI) staining (Becton, Dickinson and Co, Franklin Lakes, NJ, USA). Samples were examined using an Attune NxT Flow Cytometer (Thermo Fisher Scientific, Waltham, MA, USA) within 1 hour of staining and analyzed using FlowJo vX.0.7 software. The apoptotic rate between groups was statistically compared by means of one-way ANOVA (Dunnett’s multiple comparisons test). Differences from the dimethyl sulfoxide (DMSO)-only treated control group was considered statistically significant at a P value of < 0.05. All plotting and statistical analysis were conducted using the Prism GraphPad 6 for Windows v6.01.

[2] = target: T1, CDK4/cyclin D3 (Homo sapiens, UniProt P11802); assay: CDK family off-target kinase activity (Eurofins); assay type: biochemical
T1 construct: purchased Eurofins Pharma Discovery Services UK Ltd
T1 sequence (P11802 whole entry): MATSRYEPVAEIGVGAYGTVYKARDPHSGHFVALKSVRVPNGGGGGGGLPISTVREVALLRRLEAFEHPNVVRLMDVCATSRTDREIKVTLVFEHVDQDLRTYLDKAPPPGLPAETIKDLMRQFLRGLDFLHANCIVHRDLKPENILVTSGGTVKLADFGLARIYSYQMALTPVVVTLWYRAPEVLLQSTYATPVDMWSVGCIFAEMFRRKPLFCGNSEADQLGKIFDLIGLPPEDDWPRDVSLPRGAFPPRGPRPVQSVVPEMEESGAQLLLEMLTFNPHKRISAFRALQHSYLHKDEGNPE
T1 sequence (P30281 whole entry partner): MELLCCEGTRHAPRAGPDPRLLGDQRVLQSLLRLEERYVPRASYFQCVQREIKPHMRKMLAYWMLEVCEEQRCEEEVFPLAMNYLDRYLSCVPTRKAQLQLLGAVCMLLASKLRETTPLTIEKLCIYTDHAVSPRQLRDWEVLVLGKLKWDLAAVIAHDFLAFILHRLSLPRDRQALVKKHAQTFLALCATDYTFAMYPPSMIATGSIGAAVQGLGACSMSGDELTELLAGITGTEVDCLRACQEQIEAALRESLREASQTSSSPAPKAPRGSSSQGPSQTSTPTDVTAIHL
Procedure: (§1) GFH009 inhibition activity against the CDK9/cyclin T1 complex as well as off-target CDK family reactivity were assayed by Eurofins Pharma Discovery Services UK Ltd., (Dundee, UK). Determination of off-target inhibition of other kinases was conducted by DiscoverX LeadHunter Discovery Services (Freemont, CA, USA.) GFH009 reactivity to GPCR family members was assayed by Wuxi AppTech (Shanghai, China).
(§2) The pharmacodynamic and mechanistic foundation for the
(§3) CDK9 inhibitor for the treatment of hematologic malignancies
(§4) Supplementary Table 1: Inhibitory action of GFH009 on other CDK family members
(§5) Various CDK/ Remaining enzymatic activity (%) after
(§6) cognate cyclin pairs tested exposure to GFH009 at a concentration of Selectivity vs. CDK9
(§7) (also on this page, place not known: www.oncotarget.com Oncotarget, Materials Supplementary)
(§8) (1 picture or pasted object on this page, not shown here)

[3] = target: T2, Cdc7/cyclinB1 (Homo sapiens, UniProt O00311); assay: CDK family off-target kinase activity (Eurofins); assay type: biochemical
T2 construct: purchased Eurofins Pharma Discovery Services UK Ltd
T2 sequence (O00311 whole entry): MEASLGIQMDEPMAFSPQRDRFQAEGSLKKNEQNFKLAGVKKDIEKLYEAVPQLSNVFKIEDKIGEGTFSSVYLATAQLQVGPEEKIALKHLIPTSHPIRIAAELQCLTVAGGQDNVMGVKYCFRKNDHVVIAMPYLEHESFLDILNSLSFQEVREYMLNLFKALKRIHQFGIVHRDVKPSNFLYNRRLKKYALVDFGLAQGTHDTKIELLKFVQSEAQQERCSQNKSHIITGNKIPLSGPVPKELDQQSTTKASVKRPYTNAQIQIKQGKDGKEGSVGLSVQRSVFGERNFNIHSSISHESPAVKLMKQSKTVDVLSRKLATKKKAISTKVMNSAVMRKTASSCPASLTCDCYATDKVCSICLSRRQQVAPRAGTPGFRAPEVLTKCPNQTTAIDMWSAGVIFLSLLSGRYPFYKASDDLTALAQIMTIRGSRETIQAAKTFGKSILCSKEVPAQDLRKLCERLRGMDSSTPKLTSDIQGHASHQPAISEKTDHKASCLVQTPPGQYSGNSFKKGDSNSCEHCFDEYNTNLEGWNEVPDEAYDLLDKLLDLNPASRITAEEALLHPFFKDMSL
Procedure: as §1, §2, §3, §4, §5, §6, §7, §8

[4] = target: T3, CDK5/p25 (Homo sapiens, UniProt Q00535); assay: CDK family off-target kinase activity (Eurofins); assay type: biochemical
T3 construct: purchased Eurofins Pharma Discovery Services UK Ltd
Procedure: as §1, §2, §3, §4, §5, §6, §7, §8

[5] = target: T4, CDK17/cyclin Y (Homo sapiens, UniProt Q00537); assay: CDK family off-target kinase activity (Eurofins); assay type: biochemical
T4 construct: purchased Eurofins Pharma Discovery Services UK Ltd
Procedure: as §1, §2, §3, §4, §5, §6, §7, §8

[6] = target: T5, CDK2/cyclin A (Homo sapiens, UniProt P24941); assay: CDK family off-target kinase activity (Eurofins); assay type: biochemical
T5 construct: purchased Eurofins Pharma Discovery Services UK Ltd
Procedure: as §1, §2, §3, §4, §5, §6, §7, §8

[7] = target: T6, CDK6/cyclin D3 (Homo sapiens, UniProt Q00534); assay: CDK family off-target kinase activity (Eurofins); assay type: biochemical
T6 construct: purchased Eurofins Pharma Discovery Services UK Ltd
T6 sequence (Q00534 whole entry): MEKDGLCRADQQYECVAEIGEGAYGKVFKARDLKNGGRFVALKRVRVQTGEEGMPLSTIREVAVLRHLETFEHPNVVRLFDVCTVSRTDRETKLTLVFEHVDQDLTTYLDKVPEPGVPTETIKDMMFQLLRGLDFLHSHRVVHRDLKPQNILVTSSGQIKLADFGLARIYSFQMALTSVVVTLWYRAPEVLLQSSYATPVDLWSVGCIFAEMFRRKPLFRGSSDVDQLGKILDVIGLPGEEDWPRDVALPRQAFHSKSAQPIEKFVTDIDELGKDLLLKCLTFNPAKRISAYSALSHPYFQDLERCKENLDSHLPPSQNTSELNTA
T6 sequence (P30281 whole entry partner): as the sequence (P30281 whole entry partner) above
Procedure: as §1, §2, §3, §4, §5, §6, §7, §8

[8] = target: T7, CDK7/cyclin H/MAT1 (Homo sapiens, UniProt P50613); assay: CDK family off-target kinase activity (Eurofins); assay type: biochemical
T7 construct: purchased Eurofins Pharma Discovery Services UK Ltd
Procedure: as §1, §2, §3, §4, §5, §6, §7, §8

[9] = target: T8, CDK12/cyclin K (Homo sapiens, UniProt Q9NYV4); assay: CDK family off-target kinase activity (Eurofins); assay type: biochemical
T8 construct: purchased Eurofins Pharma Discovery Services UK Ltd
T8 sequence (Q9NYV4 whole entry): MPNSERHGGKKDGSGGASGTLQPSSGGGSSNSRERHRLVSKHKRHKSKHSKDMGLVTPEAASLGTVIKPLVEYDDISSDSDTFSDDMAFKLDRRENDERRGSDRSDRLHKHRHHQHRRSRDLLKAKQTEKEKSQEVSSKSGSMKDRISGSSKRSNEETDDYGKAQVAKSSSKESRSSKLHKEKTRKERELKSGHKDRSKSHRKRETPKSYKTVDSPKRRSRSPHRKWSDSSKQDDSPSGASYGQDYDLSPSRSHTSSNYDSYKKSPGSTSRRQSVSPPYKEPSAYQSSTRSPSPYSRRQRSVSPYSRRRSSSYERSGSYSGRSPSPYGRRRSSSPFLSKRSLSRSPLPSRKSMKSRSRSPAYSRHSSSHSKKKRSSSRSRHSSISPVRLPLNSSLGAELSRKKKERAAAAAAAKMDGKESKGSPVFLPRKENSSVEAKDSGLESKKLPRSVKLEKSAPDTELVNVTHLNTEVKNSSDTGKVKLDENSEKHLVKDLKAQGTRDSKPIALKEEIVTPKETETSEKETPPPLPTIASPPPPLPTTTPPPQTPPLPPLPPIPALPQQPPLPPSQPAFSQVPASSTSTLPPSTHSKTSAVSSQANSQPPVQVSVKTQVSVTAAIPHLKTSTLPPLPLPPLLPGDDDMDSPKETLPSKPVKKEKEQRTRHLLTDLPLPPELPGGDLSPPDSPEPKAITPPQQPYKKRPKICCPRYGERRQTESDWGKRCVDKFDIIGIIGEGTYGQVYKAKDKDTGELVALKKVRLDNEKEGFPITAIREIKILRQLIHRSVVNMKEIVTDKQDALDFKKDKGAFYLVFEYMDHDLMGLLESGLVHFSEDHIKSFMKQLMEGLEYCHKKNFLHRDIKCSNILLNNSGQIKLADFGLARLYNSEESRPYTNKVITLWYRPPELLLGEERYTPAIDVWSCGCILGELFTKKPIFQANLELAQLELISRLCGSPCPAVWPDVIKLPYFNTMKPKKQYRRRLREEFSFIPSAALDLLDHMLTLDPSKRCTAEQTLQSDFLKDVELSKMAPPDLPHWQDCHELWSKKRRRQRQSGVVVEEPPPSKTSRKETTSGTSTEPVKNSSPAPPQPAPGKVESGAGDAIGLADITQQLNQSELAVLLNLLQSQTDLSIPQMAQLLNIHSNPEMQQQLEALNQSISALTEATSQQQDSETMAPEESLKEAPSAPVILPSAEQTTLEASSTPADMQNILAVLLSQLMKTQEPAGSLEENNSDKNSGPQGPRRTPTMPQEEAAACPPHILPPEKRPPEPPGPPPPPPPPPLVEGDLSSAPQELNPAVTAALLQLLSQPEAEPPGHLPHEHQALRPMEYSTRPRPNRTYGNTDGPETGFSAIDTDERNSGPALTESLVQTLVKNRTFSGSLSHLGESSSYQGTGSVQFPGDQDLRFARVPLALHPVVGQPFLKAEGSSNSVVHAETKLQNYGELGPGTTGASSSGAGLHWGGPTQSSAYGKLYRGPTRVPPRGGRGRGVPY
T8 sequence (O75909 whole entry partner): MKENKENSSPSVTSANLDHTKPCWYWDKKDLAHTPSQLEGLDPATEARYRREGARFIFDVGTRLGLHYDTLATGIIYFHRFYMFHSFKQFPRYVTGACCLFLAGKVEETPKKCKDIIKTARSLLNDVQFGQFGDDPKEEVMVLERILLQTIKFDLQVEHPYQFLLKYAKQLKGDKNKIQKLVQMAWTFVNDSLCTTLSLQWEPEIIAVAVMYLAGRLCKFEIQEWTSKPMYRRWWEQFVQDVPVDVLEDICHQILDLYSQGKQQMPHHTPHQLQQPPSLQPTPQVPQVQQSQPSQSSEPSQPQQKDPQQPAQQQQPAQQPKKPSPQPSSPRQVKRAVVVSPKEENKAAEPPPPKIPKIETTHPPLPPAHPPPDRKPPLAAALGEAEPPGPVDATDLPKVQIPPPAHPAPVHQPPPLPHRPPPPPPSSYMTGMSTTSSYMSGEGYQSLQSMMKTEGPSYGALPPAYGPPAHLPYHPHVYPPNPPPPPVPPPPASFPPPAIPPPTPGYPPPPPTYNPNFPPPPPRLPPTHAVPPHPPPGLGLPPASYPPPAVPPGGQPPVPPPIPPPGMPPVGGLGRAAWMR
Procedure: as §1, §2, §3, §4, §5, §6, §7, §8

[10] = target: T9, CDK18/cyclin Y (Homo sapiens, UniProt Q07002); assay: CDK family off-target kinase activity (Eurofins); assay type: biochemical
T9 construct: purchased Eurofins Pharma Discovery Services UK Ltd
T9 sequence (Q07002 whole entry): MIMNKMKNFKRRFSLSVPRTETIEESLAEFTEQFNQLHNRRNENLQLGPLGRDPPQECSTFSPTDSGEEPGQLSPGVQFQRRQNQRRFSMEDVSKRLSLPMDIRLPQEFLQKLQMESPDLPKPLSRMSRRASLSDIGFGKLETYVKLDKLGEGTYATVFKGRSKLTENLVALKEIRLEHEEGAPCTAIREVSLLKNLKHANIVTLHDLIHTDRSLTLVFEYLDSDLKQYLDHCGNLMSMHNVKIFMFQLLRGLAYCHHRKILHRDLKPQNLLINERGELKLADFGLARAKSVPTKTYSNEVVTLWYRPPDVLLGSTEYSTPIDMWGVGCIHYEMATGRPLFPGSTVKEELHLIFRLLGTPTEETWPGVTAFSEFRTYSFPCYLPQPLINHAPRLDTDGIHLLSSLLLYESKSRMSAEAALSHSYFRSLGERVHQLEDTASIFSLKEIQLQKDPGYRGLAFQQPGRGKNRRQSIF
T9 sequence (Q8ND76 whole entry partner): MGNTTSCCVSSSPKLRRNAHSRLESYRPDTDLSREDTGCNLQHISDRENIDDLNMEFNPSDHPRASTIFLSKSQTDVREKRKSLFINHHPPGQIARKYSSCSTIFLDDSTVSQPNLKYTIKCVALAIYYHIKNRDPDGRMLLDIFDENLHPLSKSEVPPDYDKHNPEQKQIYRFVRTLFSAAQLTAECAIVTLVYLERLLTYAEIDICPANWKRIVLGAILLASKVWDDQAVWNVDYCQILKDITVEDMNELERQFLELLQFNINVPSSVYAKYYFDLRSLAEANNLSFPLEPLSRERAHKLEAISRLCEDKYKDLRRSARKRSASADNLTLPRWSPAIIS
Procedure: as §1, §2, §3, §4, §5, §6, §7, §8

[11] = target: T10, CDK16/cyclin Y (Homo sapiens, UniProt Q00536); assay: CDK family off-target kinase activity (Eurofins); assay type: biochemical
T10 construct: purchased Eurofins Pharma Discovery Services UK Ltd
T10 sequence (Q00536 whole entry): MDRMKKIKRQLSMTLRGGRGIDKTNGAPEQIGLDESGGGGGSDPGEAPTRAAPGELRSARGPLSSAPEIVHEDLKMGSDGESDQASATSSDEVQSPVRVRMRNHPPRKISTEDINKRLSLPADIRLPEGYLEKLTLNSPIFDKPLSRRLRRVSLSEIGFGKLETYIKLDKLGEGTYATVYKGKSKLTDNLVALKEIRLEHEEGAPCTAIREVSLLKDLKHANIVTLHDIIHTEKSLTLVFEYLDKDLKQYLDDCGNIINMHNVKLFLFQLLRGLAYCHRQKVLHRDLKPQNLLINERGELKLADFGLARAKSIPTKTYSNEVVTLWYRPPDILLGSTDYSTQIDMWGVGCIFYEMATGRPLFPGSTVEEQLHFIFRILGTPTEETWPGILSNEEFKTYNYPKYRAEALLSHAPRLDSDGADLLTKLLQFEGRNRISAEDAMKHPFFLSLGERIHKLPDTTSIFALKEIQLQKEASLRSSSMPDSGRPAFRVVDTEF
T10 sequence (Q8ND76 whole entry partner): as the sequence (Q8ND76 whole entry partner) above
Procedure: as §1, §2, §3, §4, §5, §6, §7, §8

[12] = target: T11, ETA (endothelin) (Homo sapiens, UniProt P25101); assay: GPCR agonist action testing; assay type: cell-based
T11 construct: Wuxi AppTech (contract laboratory)
From the text: (§9) Supplementary Table 2: Results of GPCR agonist action testing of GFH009 administered at a
(§10) Agonist action against GPCR type shown below
(§11) Target % Agonist Effect @ Max Dose
(§12) M1 (muscarinic Ach) −2.18
(§13) M2 (muscarinic Ach) −0.63

[13] = target: T12, CCKa (Homo sapiens, UniProt P32238); assay: GPCR agonist action testing; assay type: cell-based
T12 construct: Wuxi AppTech (contract laboratory)
From the text: as §9, §10, §11, §12, §13

[14] = target: T13, 5-HT2A (serotonin) (Homo sapiens, UniProt P28223); assay: GPCR agonist action testing; assay type: cell-based
T13 construct: Wuxi AppTech (Shanghai, China)
From the text: as §9, §10, §11, §12, §13

[15] = target: T14, a2a (adrenoceptor) (Homo sapiens, UniProt P08913); assay: GPCR agonist action testing; assay type: cell-based
T14 construct: Wuxi AppTech (contract laboratory)
From the text: as §9, §10, §11, §12, §13

[16] = target: T15, b2 (adrenoceptor) (Homo sapiens, UniProt P07550); assay: GPCR agonist action testing; assay type: cell-based
T15 construct: Wuxi AppTech (contract laboratory)
From the text: as §9, §10, §11, §12, §13

[17] = target: op-d (opioid) (Homo sapiens, UniProt P41143); assay: GPCR agonist action testing; assay type: cell-based
From the text: as §9, §10, §11, §12, §13

[18] = target: T16, D2 (dopamine) (Homo sapiens, UniProt P14416); assay: GPCR agonist action testing; assay type: cell-based
T16 construct: Wuxi AppTech (contract laboratory)
From the text: as §9, §10, §11, §12, §13

[19] = target: op-k (opioid) (Homo sapiens, UniProt P41145); assay: GPCR agonist action testing; assay type: cell-based
From the text: as §9, §10, §11, §12, §13

[20] = target: M2 (muscarinic Ach) (Homo sapiens, UniProt P08172); assay: GPCR agonist action testing; assay type: cell-based
From the text: as §9, §10, §11, §12, §13

[21] = target: T17, 5-HT1B (serotonin) (Homo sapiens, UniProt P28222); assay: GPCR agonist action testing; assay type: cell-based
T17 construct: Wuxi AppTech (Shanghai, China)
From the text: as §9, §10, §11, §12, §13

In the case of `COC[C@@H](C)NC1CCC(Nc2cc(-c3csc(NCC4(C#N)CCOCC4)n3)c(Cl)cn2)CC1` (stereo partly drawn) [GFH009], the Apoptosis rate ([1]; 0.01 μM) was 6.3 ± 0.1%, the Apoptosis rate ([1]; 0.03 μM) was 7.4 ± 0.3% and the Apoptosis rate ([1]; 0.1 μM) was 38.1 ± 0.1%. For the same compound, the Apoptosis rate ([1]; 0.3 μM) was 67.4 ± 1.0%, the Apoptosis rate ([1]; 1 μM) was 61.2 ± 0.3% and the “Selectivity vs. CDK9” value [2] was greater than 100. The “Remaining enzymatic activity (%) after exposure to GFH009” value (“Remaining enzymatic activity (%)” below) ([2]; 1 µM) was 70%, the “Remaining enzymatic activity (%)” value ([2]; 10 µM) was 41% and the “Selectivity vs. CDK9” value [3] was greater than 100. For the same compound, the “Remaining enzymatic activity (%)” value ([3]; 1 µM) was 75%, the “Remaining enzymatic activity (%)” value ([3]; 10 µM) was 47% and the “Selectivity vs. CDK9” value [4] was greater than 100. For the same compound, the “Remaining enzymatic activity (%)” value ([4]; 1 µM) was 79%, the “Remaining enzymatic activity (%)” value ([4]; 10 µM) was 43% and the “Selectivity vs. CDK9” value [5] was less than 100. For the same compound, the “Remaining enzymatic activity (%)” value ([5]; 1 µM) was 30%, the “Remaining enzymatic activity (%)” value ([5]; 10 µM) was 7% and the “Selectivity vs. CDK9” value [6] was greater than 1000. The “Remaining enzymatic activity (%)” value ([6]; 1 µM) was 80%, the “Remaining enzymatic activity (%)” value ([6]; 10 µM) was 51% and the “Selectivity vs. CDK9” value [7] was greater than 1000. For the same compound, the “Remaining enzymatic activity (%)” value ([7]; 1 µM) was 85%, the “Remaining enzymatic activity (%)” value ([7]; 10 µM) was 58% and the “Selectivity vs. CDK9” value [8] was greater than 100. The “Remaining enzymatic activity (%)” value ([8]; 1 µM) was 67%, the “Remaining enzymatic activity (%)” value ([8]; 10 µM) was 19% and the “Selectivity vs. CDK9” value [9] was greater than 1000. The “Remaining enzymatic activity (%)” value ([9]; 1 µM) was 94%, the “Remaining enzymatic activity (%)” value ([9]; 10 µM) was 86% and the “Selectivity vs. CDK9” value [10] was greater than 100. For the same compound, the “Remaining enzymatic activity (%)” value ([10]; 1 µM) was 53%, the “Remaining enzymatic activity (%)” value ([10]; 10 µM) was 12% and the “Selectivity vs. CDK9” value [11] was less than 100. For the same compound, the “Remaining enzymatic activity (%)” value ([11]; 1 µM) was 23%, the “Remaining enzymatic activity (%)” value ([11]; 10 µM) was 5% and the “% Agonist Effect @ Max Dose (12 µM)” value [12] was −0.08%. For the same compound, the “% Agonist Effect @ Max Dose (12 µM)” value [13] was −0.4%, the “% Agonist Effect @ Max Dose (12 µM)” value [14] was −1.68% and the “% Agonist Effect @ Max Dose (12 µM)” value [15] was −3.87%. The “% Agonist Effect @ Max Dose (12 µM)” value [16] was −0.6%, the “% Agonist Effect @ Max Dose (12 µM)” value [17] was −0.98% and the “% Agonist Effect @ Max Dose (12 µM)” value [18] was 3.66%. The “% Agonist Effect @ Max Dose (12 µM)” value [19] was 21.57%, the “% Agonist Effect @ Max Dose (12 µM)” value [20] was −0.63% and the “% Agonist Effect @ Max Dose (12 µM)” value [21] was −51.01%.

Reference: paper PMC10732257 (Oncotarget, 2023)
